We go through one molecule from article PMC12073402, “A Selective MAP3K1 Inhibitor Facilitates Discovery of NPM1 as a Member of the Network” (Molecules, 2025).

Bounds are passed on as bounds.

The subject of test [1] is TNF-α–induced MAP3K1-IKKβ–mediated NF-κB transcription. Put plainly: NF-κB luciferase reporter assay in HeLa cells. The test is classed as cell-based. As to conditions: 20, 10, 5 μM, TNF-α 20 ng/mL, 6 h. The text has this:
MAP3K1 was previously shown to phosphorylate IKKβ [12] and regulate NF-κB signaling. Therefore, we validated the ability of 51-106 to inhibit MAP3K1 by probing the phosphorylation status of the known substrate, IKKβ, using an AlphaLISA assay. The pancreatic cancer cells (MiaPaCa2) were subjected to a 30-min pretreatment with varying concentrations of 51-106, followed by TNFα stimulation to induce IKKβ phosphorylation. Following a 15-min stimulation, the levels of phospho-IKKβ and total IKKβ were quantified. […] (Figure 3A). Next, we evaluated the efficacy of 51-106 in a cell-based reporter assay utilizing a HeLa cell line that specifically responds to TNFα induced expression of a luciferase reporter gene that is under the control of an NF-κB response element.
A suspension of HeLa-NFkB-Luc cells (Cat# SL-0001; Signosis; Santa Clara, CA, USA) (2 × 10^4/well) in 80 μL media was plated in white-walled, flat, clear-bottomed, sterile, 96-well tissue culture plates (Cat# 3610; Corning). The cells were allowed to adhere overnight in a humidified 5% CO2 incubator at 37 °C. […] Post stimulation addition (6 h), fluorescence (Ex 560, Em 590) was measured on the plate reader to assess cell viability. […] Luminescence (1000 ms) was measured on the plate reader set to the kinetic mode of acquisition for 15 min. The luminescence data were normalized to the AlamarBlue values. […]

A further test deals with T1, AGK (Homo sapiens, UniProt Q53H12).
T1 construct: endogenous in cells; host or cells: PANC-1 cell lysate
T1 sequence (Q53H12 whole entry): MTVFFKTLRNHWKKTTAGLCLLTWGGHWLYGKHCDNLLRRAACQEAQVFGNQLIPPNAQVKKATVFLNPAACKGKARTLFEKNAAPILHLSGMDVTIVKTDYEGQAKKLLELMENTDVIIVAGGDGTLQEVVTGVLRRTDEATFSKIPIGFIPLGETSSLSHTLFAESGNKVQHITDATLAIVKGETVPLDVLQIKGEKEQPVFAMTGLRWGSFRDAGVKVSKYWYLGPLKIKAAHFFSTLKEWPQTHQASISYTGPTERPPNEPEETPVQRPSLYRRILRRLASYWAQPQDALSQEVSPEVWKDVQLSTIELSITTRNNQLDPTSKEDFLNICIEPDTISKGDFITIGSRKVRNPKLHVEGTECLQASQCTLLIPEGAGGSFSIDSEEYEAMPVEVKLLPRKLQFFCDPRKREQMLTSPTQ
Put plainly: KiNativ kinome profiling in PANC-1 lysate. The conditions noted are these: ATP. The test is classed as binding. An excerpt: (§1) To assess target engagement and selectivity, we opted to conduct a kinome screen (KiNativ) in PANC-1 cell lysates. This chemical proteomics (chemoproteomics) methodology allows for the evaluation of small-molecule binding to protein kinases in native systems such as cell lysates. KiNativ utilizes a soluble chemical probe comprising ATP linked to biotin through an acyl-phosphate bond. The probe covalently modifies conserved lysine residues found in the ATP binding site of essentially all protein kinases (Figure 2A). To profile a kinase inhibitor, cell lysates are treated with a vehicle control or inhibitor prior to addition of the desthiobiotin ATP probe. The ATP probe occupies the ATP binding site in the kinase, which enables the conserved lysines to be biotinylated. […] The cell lysates are digested with a protease (trypsin), biotinylated peptides are affinity-enriched on streptavidin beads, and the labeled peptides are analyzed by liquid chromatography–tandem MS (Figure 2B). If an inhibitor binds to a kinase, it competes with the ATP, thus resulting in a loss of that kinase-associated peptide signal, allowing for the quantitative measurement of inhibitor binding. Unlike recombinant enzyme assays, KiNativ IC50 values are a direct measure of active site binding instead of enzymatic activity.
(§2) Kinome profiling quantified the activity of 51-106 against >300 kinases in the PANC-1 cells. The results summarized in Figure 2C are the average of duplicate control and duplicate treated samples with 5 μM of 51-106 or DMSO.
(§3) KiNativ assay with 51-106.
(§4) ATP Loop: ATP binding loop
(§5) Activation Loop: Activation loop
(§6) ATP: ATP site in non-canonical kinase (e.g. lipid kinase)
(§7) Protein Kinase Domain: Other lysine within kinase domain, possibly not in ATP binding site
(§8) Other: Labeling of residue outside of the protein kinase domain, possibly not in ATP binding site
(§9) No change. NB = No Binding (≤ 0)
(§10) >100% increase in MS signal (>2 fold increase)
(§11) Data points inhibited […] & not considered significant are left uncolored
(§12) Note: This KiNativ dataset is the result of an analysis of duplicate treated samples and control samples.
(§13) The % changes in MS signals being reported are statistically significant (Student T -test score < 0.04)

The target of the next test is T2, EphB3 (Homo sapiens, UniProt P54753).
T2 construct: endogenous in cells; host or cells: PANC-1 lysate
T2 sequence (P54753 34-998): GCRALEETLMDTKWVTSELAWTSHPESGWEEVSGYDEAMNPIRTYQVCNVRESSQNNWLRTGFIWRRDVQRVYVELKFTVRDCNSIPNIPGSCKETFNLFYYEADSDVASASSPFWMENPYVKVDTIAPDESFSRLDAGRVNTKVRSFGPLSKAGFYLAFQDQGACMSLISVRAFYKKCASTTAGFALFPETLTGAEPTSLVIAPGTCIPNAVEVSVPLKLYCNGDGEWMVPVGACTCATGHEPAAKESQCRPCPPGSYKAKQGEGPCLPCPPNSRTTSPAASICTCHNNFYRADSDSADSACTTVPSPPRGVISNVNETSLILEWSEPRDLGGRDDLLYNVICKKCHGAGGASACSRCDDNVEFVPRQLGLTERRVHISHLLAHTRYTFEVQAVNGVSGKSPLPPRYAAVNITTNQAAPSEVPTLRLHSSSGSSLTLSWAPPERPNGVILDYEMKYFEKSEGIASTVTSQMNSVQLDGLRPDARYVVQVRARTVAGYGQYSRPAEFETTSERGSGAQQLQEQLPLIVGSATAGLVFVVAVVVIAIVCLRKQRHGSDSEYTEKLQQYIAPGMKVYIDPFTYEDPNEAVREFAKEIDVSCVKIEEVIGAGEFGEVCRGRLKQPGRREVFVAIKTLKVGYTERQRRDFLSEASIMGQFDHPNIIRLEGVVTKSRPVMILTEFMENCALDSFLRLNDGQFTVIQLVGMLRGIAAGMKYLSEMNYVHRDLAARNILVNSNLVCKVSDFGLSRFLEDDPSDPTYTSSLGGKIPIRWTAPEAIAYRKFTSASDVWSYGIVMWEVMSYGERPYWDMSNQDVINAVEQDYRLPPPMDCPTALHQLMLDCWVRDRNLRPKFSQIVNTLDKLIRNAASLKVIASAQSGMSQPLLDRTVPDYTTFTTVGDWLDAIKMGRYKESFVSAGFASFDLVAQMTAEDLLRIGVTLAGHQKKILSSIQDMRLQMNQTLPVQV
The test can be described thus: KiNativ kinome profiling in PANC-1 lysate. The test is classed as binding. The conditions noted are these: ATP Loop.
Text: as §1, §2, §3, §4, §5, §6, §7, §8, §9, §10, §11, §12, §13

The target in a further test is T3, FER (Homo sapiens, UniProt P16591).
T3 construct: endogenous in cells; host or cells: PANC-1 lysate
T3 sequence (P16591 whole entry): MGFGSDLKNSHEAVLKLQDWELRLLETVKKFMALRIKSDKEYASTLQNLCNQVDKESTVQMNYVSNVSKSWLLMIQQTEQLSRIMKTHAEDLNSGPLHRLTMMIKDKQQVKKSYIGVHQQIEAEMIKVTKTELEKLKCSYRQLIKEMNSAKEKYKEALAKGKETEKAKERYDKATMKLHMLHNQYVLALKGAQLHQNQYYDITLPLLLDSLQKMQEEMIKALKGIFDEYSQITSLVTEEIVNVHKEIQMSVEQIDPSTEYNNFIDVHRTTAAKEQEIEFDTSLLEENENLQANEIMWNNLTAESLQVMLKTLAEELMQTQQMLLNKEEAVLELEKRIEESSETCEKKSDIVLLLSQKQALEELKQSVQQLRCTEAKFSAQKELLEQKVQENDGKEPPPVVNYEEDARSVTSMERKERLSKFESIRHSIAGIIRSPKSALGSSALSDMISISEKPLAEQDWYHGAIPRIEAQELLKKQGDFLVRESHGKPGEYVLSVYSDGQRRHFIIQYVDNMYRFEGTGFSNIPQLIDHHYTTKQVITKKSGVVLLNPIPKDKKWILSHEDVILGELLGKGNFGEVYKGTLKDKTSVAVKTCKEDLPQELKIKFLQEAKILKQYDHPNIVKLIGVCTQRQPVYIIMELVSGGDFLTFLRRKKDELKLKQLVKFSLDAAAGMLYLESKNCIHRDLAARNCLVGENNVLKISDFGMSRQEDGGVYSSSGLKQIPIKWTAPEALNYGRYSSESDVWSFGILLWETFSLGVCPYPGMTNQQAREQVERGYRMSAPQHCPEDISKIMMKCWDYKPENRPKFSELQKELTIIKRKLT
Put plainly: KiNativ kinome profiling in PANC-1 lysate. The test is classed as binding.
Text: as §1, §2, §3, §4, §5, §6, §7, §8, §9, §10, §11, §12, §13

In another test the target is T4, HER2/ErbB2 (Homo sapiens, UniProt P04626).
T4 construct: we opted to conduct a kinome screen (KiNativ) in PANC-1 cell lysates; endogenous in cells; host or cells: PANC-1 cell lysate
T4 sequence (P04626 23-1255): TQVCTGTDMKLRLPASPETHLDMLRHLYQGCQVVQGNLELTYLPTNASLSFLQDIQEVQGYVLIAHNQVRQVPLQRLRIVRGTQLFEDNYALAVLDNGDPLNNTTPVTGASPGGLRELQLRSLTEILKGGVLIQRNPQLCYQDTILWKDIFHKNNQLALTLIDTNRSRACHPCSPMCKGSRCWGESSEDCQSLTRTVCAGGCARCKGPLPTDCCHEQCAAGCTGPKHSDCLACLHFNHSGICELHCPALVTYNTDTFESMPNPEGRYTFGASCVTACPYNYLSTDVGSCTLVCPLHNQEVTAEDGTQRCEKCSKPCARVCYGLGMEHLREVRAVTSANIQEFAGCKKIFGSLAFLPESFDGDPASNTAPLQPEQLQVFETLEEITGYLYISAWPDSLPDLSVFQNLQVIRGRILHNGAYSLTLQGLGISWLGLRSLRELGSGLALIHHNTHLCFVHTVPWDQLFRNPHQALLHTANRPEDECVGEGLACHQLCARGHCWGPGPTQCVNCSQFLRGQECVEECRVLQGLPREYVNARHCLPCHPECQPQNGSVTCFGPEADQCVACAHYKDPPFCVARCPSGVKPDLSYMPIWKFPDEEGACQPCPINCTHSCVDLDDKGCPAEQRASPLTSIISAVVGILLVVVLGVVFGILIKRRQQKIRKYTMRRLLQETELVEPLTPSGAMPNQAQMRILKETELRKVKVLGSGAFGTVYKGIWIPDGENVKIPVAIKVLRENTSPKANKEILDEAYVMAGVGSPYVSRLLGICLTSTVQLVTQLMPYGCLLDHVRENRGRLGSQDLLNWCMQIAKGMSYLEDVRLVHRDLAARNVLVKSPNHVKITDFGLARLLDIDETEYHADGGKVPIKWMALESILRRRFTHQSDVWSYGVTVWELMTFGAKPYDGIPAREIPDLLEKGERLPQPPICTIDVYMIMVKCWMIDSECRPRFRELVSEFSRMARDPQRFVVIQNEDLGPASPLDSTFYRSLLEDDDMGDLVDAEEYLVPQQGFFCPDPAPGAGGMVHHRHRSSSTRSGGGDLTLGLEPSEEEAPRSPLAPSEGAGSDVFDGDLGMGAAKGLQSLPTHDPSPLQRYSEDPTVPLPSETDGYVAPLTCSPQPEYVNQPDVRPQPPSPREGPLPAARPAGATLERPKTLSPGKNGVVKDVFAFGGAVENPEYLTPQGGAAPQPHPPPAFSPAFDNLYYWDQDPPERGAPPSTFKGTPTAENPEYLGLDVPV
Put plainly: KiNativ kinome profiling in PANC-1 lysate. Type of test: binding.
Text: as §1, §2, §3, §4, §5, §6, §7, §8, §9, §10, §11, §12, §13

The subject of the next test is MAPKAPK2, MAPKAPK3. Put plainly: KiNativ kinome profiling in PANC-1 lysate. Type of test: binding. As to conditions: 5 µM; Lys2; DVKPENLLYTSK
Text: as §1, §2, §3, §4, §5, §6, §7, §8, §9, §10, §11, §12, §13

For another test, the target named is T5, MST1 (Homo sapiens, UniProt Q13043).
T5 construct: endogenous in cells; host or cells: PANC-1
T5 sequence (Q13043 whole entry): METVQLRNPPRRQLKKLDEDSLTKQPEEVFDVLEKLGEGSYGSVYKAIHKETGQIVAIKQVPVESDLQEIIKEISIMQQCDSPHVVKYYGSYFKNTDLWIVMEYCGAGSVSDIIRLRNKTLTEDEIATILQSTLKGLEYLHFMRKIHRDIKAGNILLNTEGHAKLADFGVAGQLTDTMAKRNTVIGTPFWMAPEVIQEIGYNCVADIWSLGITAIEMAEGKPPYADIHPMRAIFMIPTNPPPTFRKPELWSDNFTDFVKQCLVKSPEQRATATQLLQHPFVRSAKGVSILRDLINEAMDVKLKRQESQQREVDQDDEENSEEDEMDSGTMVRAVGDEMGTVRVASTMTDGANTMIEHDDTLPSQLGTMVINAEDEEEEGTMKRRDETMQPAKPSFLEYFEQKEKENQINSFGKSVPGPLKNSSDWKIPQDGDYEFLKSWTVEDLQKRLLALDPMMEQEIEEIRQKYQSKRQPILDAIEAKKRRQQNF
The test can be described thus: KiNativ kinome profiling in PANC-1 lysate. The test is classed as binding. The conditions noted are these: Lys1.
Text: as §1, §2, §3, §4, §5, §6, §7, §8, §9, §10, §11, §12, §13

`Cn1cc(-c2cnc3ccc(NC(=O)Nc4ccc(F)c(C(F)(F)F)c4)cc3n2)cn1` [51-106, 1-(4-Fluoro-3-(trifluoromethyl)phenyl)-3-(3-(1-methyl-1H-pyrazol-4-yl)quinoxalin-6-yl)urea]: the “TNF-α–induced NF-κB transcription (luciferase reporter)” value in test [1] is reported as “dose-dependent inhibition”. In addition, the inhibition at 5 µM was ≤ 0% against AGK; 1.6% on EphB3; ≤ 0% at FER (Lys1, […]); ≤ 0% at HER2/ErbB2 (ATP Loop, LLDIDETEYHADGGKVPIK); 15.6% on HER2/ErbB2 (Lys1, GIWIPDGENVKIPVAIKVLR); ≤ 0% on MST1. Further, the “% Inhibition” value at FER (5 µM, ATP Loop, QEDGGVYSSSGLKQIPIK) is given as “NB (NB = No Binding (≤ 0))”; with MAPKAPK2, MAPKAPK3, “NB (NB = No Binding (≤ 0))”.
